According to patent publication US8828696B2, “Use of Penicillin G Procaine as a selective antimicrobial agent in the production of alcohol by fermentation” (Lallemand Specialites, Inc, priority 2008, dated 2014):
Values joined by “and” are separate entries in the source; they are usually repeats but may differ in a detail not shown here. Equal entries are not always repeated.

Key:
contaminating bacteria = experiment: Alcohol production plant trial, fermentor drop data (50 m/g/y dry grind, corn); format: cell-based
Description: This trial was conducted at a 50 million gallon per year (m/g/y) dry grind fuel alcohol production facility utilizing corn as a fermentation substrate. Batch yeast propagation and fermentation process were utilized. Antimicrobials were added to the fermentor during the fill cycle at approximately 30% fill.
No other changes were made to the process or chemical additions that would influence the fermentation kinetics monitored during 3 sets of fermentor batches listed below. The fermentation data was accumulated at the end (drop) of the fermentation process for each of the fermentors. Fermentation kinetics was measured for three batch cycles including:
Set 1—“Pre Penicillin G Procaine trial”-10 fermentor batches using a level of 0.5 ppm Virginiamycin. See results in Table 2.
Set 2—“Penicillin G Procaine trial”-10 fermentor batches using a level of 0.5 ppm of Penicillin G Procaine. See results in Table 3.
Set 3—“Post Penicillin G Procaine trial”-10 fermentor batches using a level of 0.5 ppm of Virginiamycin. See results in Table 4.

Lactobacillus fermentum = experiment: Comparative efficacy analysis Virginiamycin vs. Penicillin G Procaine, growth in MRS broth, 24 well plate; format: cell-based; conditions: industry isolated Lactobacillus fermentum; ppm of the fermentation mixture
Excerpt: The most commonly found microorganism in fuel ethanol producing plants is the Lactobacillus fermentum bacterium and is considered as an “industry normal” bacterium. This example compares the use of a Bactenix® line of products, Penicillin G Procaine-antibiotic versus Virginiamycin-antibiotic to control “industry normal” Lactobacillus fermentum bacterium. This trial uses an alcohol water mixture to assure total dissolving of antibiotics. This assures that the correct concentrations of antibiotics are going into the test wells and thereby preventing under dosing during the trial. All bacteria tested were industry specific isolates that were obtained from actual corn mash samples from fermentation alcohol production plants. The trial was set up as follows: • 1. Dissolve 0.1 g of each of the antibiotics in 1 ml water and then add 5 ml of ethanol, vortex and bring up to 10 ml with sterile water to from a suspension. • 2. Dilute the previous suspension 1:10 with sterile water. This gives a one mg/ml concentration. • 3. Filter the suspension by running through a 0.2 μm syringe filter. • 4. Add four μl broth in a centrifuge then add antibiotics to MRS (DeMan, Rogosa and Sharpe) broth at the concentrations required for the test. • 5. Take four μl of a fresh 24-hour culture of the target organisms and add to the corresponding empty wells in a pre-labeled 24 well tissue culture plate. • 6. Pipette one ml of the appropriate antibiotic media to each well of the plate. • 7. Incubate at 33° C. for 24 hours. • 8. Read plates for bacterial growth and re-incubate the plates at 33° C. • 9. After 48 hours read and report the final results.

[1] = Penicillin G Procaine trial 0.5 ppm compared with Virginiamycin sets
[2] = Set 2 'Penicillin G Procaine trial', 0.5 ppm, 10 Batch average
[3] = Set 2 'Penicillin G Procaine trial', 0.5 ppm, drop data, single fermentor batch

With `CC1(C)S[C@@H]2[C@H](NC(=O)Cc3ccccc3)C(=O)N2[C@H]1C(=O)O.CCN(CC)CCOC(=O)c1ccc(N)cc1` [Penicillin G Procaine] the “decrease of lactic acid production” value (contaminating bacteria; [1]) was “about a quarter percent”, the “increase of ethanol production” value (contaminating bacteria; [1]) was “about half a percent” and the “production increase of ethanol per fermentor” value (contaminating bacteria; [1]) was “about 2,500 gallons”. It also gave an Acetic % (contaminating bacteria; [2]) of 0.03%, an EtOH v/v % (contaminating bacteria; [2]) of 15.98 v/v % and a Glucose % (contaminating bacteria; [2]) of 0.28%. For the same compound, the Lactic % (contaminating bacteria; [2]) was 0.24%, the Acetic % (contaminating bacteria; [3]) was 0.03% and 0.02% and 0.05% and 0.04% and the Glucose % (contaminating bacteria; [3]) was 0.28% and 0.30% and 0.27% and 0.29%. The Lactic % (contaminating bacteria; [3]) was 0.28% and 0.19% and 0.21% and 0.26% and 0.25% and 0.23% and 0.24% and the minimum inhibitory concentration (Lactobacillus fermentum) was 0.1 ppm.
